Like-named read-outs stand apart in the source and are kept apart here.
Columns and labels:
[1] = test system: Respiratory syncytial virus recombinant with luciferase (RSV-Luc5) in HEp-2 cells; assay: microbe, parasite or virus in culture; type: cell-based; conditions: human respiratory syncytial virus
GI S9 stability = type: in vitro ADME
Description: Example G: GI S9 Stability
Duplicate aliquots of test compound or positive control substrate (GS-7340) were added to S9 stock diluted with 100 mM phosphate buffered saline, pH 7.4, to obtain a protein concentration of 1.0 mg/mL. The S9 metabolic reactions were initiated by the addition of the substrates to the S9 reaction mixture to a final concentration of 2 μM. At 0, 10, 20, 30, 60 and 120 min, […] aliquots of the reaction mixture were transferred to plates containing […] of IS/Q solution. After quenching, the plates were centrifuged at 3000 g for 30 minutes, and 150 μL aliquots of each supernatant were diluted with 150 μL water. Aliquots ([…]) of the diluted supernatant were analyzed on a Thermo Q-Exactive mass spectrometer as described below. GI S9 Stability—No phenylmethylsulfonyl fluoride (PMSF): Similar to the procedure described above, test compounds were incubated at 2 μM with 1 mg/mL PMSF-free Intestinal S9 fractions. Samples are removed at 6 time points over the course of a 120 min experiment and the parent compound disappreance and reference compound A formation is determined by mass spectrometry.
Example K: Liquid Chromatography/Mass Spectroscopy Methods for S9 and Plasma Stability
Quantification of test compounds, Reference Compound A (S9 stability assay nucleoside metabolite), and controls was performed by analyte/internal standard peak area ratio (PAR) values measured on a Thermo Q-Exactive mass spectrometer coupled to a Dionex UltiMate 3000 HPLC with a Leap Technologies HTC PAL autosampler. The column used for analysis of test compounds and Reference Compound A was a Waters Acquity BEH C18 ([…] particle size, 2.1′50 mm). The column used for control (GS-7340) was a Thermo Hypersil GOLD ([…] particle size, 2.1′50 mm). Mobile phase A consisted of 0.1% (v/v) formic acid in water. Mobile phase B consisted of 0.1% (v/v) formic acid in acetonitrile. Elution of analytes was achieved by a series of linear gradients of acetonitrile in water containing 0.1°(v/v) formic acid. The mass spectrometer was calibrated on a weekly basis and mass tolerance of 5 ppm was used.

[2] = CC50 MT4 cytotoxicity (Cell-Titer Glo); type: cell-based; conditions: human
Procedure, shortened: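 Uninfected MT-4 and HEp-2 cells cultured 4-5 days at 37° C with 3-fold serially diluted compound (15 nM to 100,000 nM). Viability read by Cell-Titer Glo luminescence; untreated and 2 μM puromycin wells set 100% and 0%. CC50 from non-linear regression as concentration reducing viability by 50%.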

[3] = test system: Respiratory syncytial virus recombinant with luciferase (RSV-Luc5) in Normal Human Bronchial Epithelial (NHBE) cells; assay: microbe, parasite or virus in culture; type: cell-based
Plasma stability = type: in vitro ADME; parameters: unit not given here; conditions: 37° C., 2 μM substrate
Procedure, shortened: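 Reaction mixture was sampled at 0.05, 0.5, 1, 2, 3 and 4 hr into quench solution containing internal standard, then centrifuged and diluted with water. Remaining analyte was measured by LC-MS on a Q-Exactive using a formic acid/acetonitrile gradient, with 5 ppm mass tolerance.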

[4] = GI S9 stability - no PMSF; type: in vitro ADME; conditions: pH 7.4; human intestinal S9, PMSF-free; read-out: GIS9-HUMAN-NoPMSF T1/2
Procedure, shortened: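 Compounds were incubated at 2 μM with PMSF-free intestinal S9 (1 mg/mL protein) in 100 mM PBS, pH 7.4, sampling at 6 time points over 120 min. Parent disappearance and formation of the nucleoside metabolite Reference Compound A were quantified by LC-MS (Q-Exactive) using analyte/internal standard peak area ratios.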

[5] = test system: Caco-2 cells (clone C2BBe1); assay: CACO-2 permeability; type: in vitro ADME; parameters: unit not given here; conditions: for DM Caco2 A to B: apical to basolateral, donor pH 6.5, receiver pH 7.4; for DM Caco2 B to A: basolateral to apical
Procedure, shortened: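 Caco-2 monolayers grown 21 days on collagen-coated transwells and checked for integrity by TEER. Donor buffer was HBSS/HEPES/glucose pH 6.5 with 200 μM BNPP; receiver was pH 7.4 with BSA. Compounds were dosed apically or basolaterally for A-to-B and B-to-A transport, with receiver sampling at 1 and 2 h, LC-MS/MS analysis and percent recovery.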

[6] = test system: SARS Coronavirus 2 recombinant with NanoLuc (SARS-CoV2-NLuc) in A549-hACE2 cells; assay: organism not typed; type: cell-based
[7] = HEp-2, 72 h, read-out: RSV Hep2 EC50

SMILES	EC50 [1, 7] [nM]	half-life at 2 µM (GI S9 stability; human, s9, pH 7.4) [min]	CC50 [2] [nM]	EC50 ([3]; 72 h, read-out: RSV NHBE EC50) [nM]	STA Human Plasma 37 (Plasma stability)	half-life at 2 µM [4] [min]	DM Caco2 A to B [5]	DM Caco2 B to A [5]	EC50 ([6]; 48 h, read-out: SARS-CoV2 EC50) [nM]	half-life at 2 µM (GI S9 stability; pH 7.4, human intestinal S9, read-out: GIS9 Human T1/2) [min]	CC50 ([2]; uninfected MT-4 cells, 4-5 days, read-out: MT4 CC50) [nM]	EC50 ([1]; HEp-2, read-out: EC50 RSVFluc-Hep2 384 V2) [nM]	EC50 ([3]; read-out: EC50 RSVFluc-NHBE 384 V2) [nM]	logD (physchem)	EC50 ([6]; A549, read-out: EC50 SARS CoV2 NanoLuc A549 384) [nM]
CC(C)COC(=O)OC[C@H]1O[C@@](C#N)(c2ccc3c(N)ncnn23)[C@H](O)[C@@H]1O [Compound 1, ((2R,3S,4R,5R)-S-(4-aminopyrrolo[2,1-f][1,2,4]triazin-7-yl)-5-cyano-3,4-dihydroxytetrahydrofuran-2-yl)methyl isobutyl carbonate]	422	113	> 46400	2180	28.434	1.45	0.275	3.853	1870						
CC(C)COC(=O)Nc1ncnn2c([C@]3(C#N)O[C@H](COC(=O)OCC(C)C)[C@@H](O)[C@H]3O)ccc12 [Compound 2, isobutyl (7-((2R,3R,4S,5R)-2-cyano-3,4-dihydroxy-5-(((isobutoxycarbonyl)oxy)methyl)tetrahydrofuran-2-yl)pyrrolo[2,1-f][1,2,4]triazin-4-yl)carbamate]	6610	157	> 50000	9600	344.3		1.17	8.69	> 50000						
CC(C)(C)COC(=O)OC[C@H]1O[C@@](C#N)(c2ccc3c(N)ncnn23)[C@H](O)[C@@H]1O [Compound 3, ((2R,3S,4R,5R)-5-(4-aminopyrrolo[2,1-f][1,2,4]triazin-7-yl)-5-cyano-3,4-dihydroxytetrahydrofuran-2-yl)methyl neopentyl carbonate]	545	81	> 50000	1600	82.745	0.8	1.23	9.8	796						
COC(=O)OC[C@H]1O[C@@](C#N)(c2ccc3c(N)ncnn23)[C@H](O)[C@@H]1O [Compound 5, ((2R,3S,4R,5R)-5-(4-aminopyrrolo[2,1-f][1,2,4]triazine-7-yl)-5-cyano-3,4-dihydroxytetrahydrofuran-2-yl)methyl methyl carbonate]	2900	≥ 789	> 50000	3550	1388.9	74.8			13200						
N#C[C@@]1(c2ccc3c(N)ncnn23)O[C@H](COC(=O)Oc2ccccc2)[C@@H](O)[C@H]1O [Compound 7, ((2R,3S,4R,5R)-5-(4-aminopyrrolo[2,1-f][1,2,4]triazin-7-yl)-5-cyano-3,4-dihydroxytetrahydrofuran-2-yl)methyl phenyl carbonate]	416	54	47400	1340	6.563		0.52	8.98	915						
CCCOC(=O)OC[C@H]1O[C@@](C#N)(c2ccc3c(N)ncnn23)[C@H](O)[C@@H]1O [Compound 8, ((2R,3S,4R,5R)-5-(4-aminopyrrolo[2,1-f][1,2,4]triazin-7-yl)-5-cyano-3,4-dihydroxytetrahydrofuran-2-yl)methyl propyl carbonate]	301			1840	11.698	0.58			1010	159	> 50000				
N#C[C@@]1(c2ccc3c(N)ncnn23)O[C@H](COC(=O)OC2CC2)[C@@H](O)[C@H]1O [Compound 9, ((2R,3S,4R,5R)-5-(4-aminopyrrolo[2,1-f][1,2,4]triazin-7-yl)-5-cyano-3,4-dihydroxytetrahydrofuran-2-yl)methyl cyclopropyl carbonate]	784	311	> 50000	1810	156.68		0.39	5.17	2280						
COCCOC(=O)OC[C@H]1O[C@@](C#N)(c2ccc3c(N)ncnn23)[C@H](O)[C@@H]1O [Compound 10, ((2R,3S,4R,5R)-5-(4-aminopyrrolo[2,1-f][1,2,4]triazine-7-yl)-5-cyano-3,4-dihydroxytetrahydrofuran-2-yl)methyl (2-methoxyethyl) carbonate]	3960	≥ 789	> 50000	2990	43.569		0.08	1.39	14100						
N#C[C@@]1(c2ccc3c(N)ncnn23)O[C@H](COC(=O)OC2CCCC2)[C@@H](O)[C@H]1O [Compound 12, ((2R,3S,4R,5R)-5-(4-aminopyrrolo[2,1-f][1,2,4]triazin-7-yl)-5-cyano-3,4-dihydroxytetrahydrofuran-2-yl)methyl cyclopentyl carbonate]	659	58	> 50000	1580	35.623		1.15	13.73	2350						
CC(C)(C)COC(=O)OC[C@H]1O[C@@](C#N)(c2ccc3c(=N)n(COP(=O)(O)O)cnn23)[C@H](O)[C@@H]1O [Compound 19, ((2R,3S,4R,5R)-5-cyano-3,4-dihydroxy-5-(4-imino-3-((phosphonooxy)methyl)-3,4-dihydropyrrolo[2,1-f][1,2,4]triazin-7-yl)tetrahydrofuran-2-yl)methyl neopentyl carbonate]	1240	27.4	> 50000	5400	1584				7700						
COC(C)(C)COC(=O)OC[C@H]1O[C@@](C#N)(c2ccc3c(N)ncnn23)[C@H](O)[C@@H]1O [Compound 54, ((2R,3S,4R,5R)-5-(4-aminopyrrolo[2,1-f][1,2,4]triazin-7-yl)-5-cyano-3,4-dihydroxytetrahydrofuran-2-yl)methyl (2-methoxy-2-methylpropyl) carbonate]	587	692	> 50000	1020	108	4.33	0.25	3.8	5690						
COc1ccc(OC(=O)OC[C@H]2O[C@@](C#N)(c3ccc4c(N)ncnn34)[C@H](O)[C@@H]2O)cc1 [Compound 111, ((2R,3S,4R,5R)-5-(4-aminopyrrolo[2,1-f][1,2,4]triazin-7-yl)-5-cyano-3,4-dihydroxytetrahydrofuran-2-yl)methyl (4-methoxyphenyl) carbonate]		53.1	> 50000		35	3.93	0.625	11.22				220	1300	1.5	3420

Source: patent US12448383B2, “Compounds and methods for treatment of viral infections” (priority 2022, dated 2025)
